ChEMBL document CHEMBL1140303, “Pharmacophore, drug metabolism, and pharmacokinetics models on non-peptide AT1, AT2, and AT1/AT2 angiotensin II receptor antagonists” (J Med Chem, 2005)

Tests used:
[1] = target: T1, Type-1 angiotensin II receptor (Homo sapiens) (UniProt P30556); assay: Binding affinity for AT1 receptor
T1 sequence (whole entry): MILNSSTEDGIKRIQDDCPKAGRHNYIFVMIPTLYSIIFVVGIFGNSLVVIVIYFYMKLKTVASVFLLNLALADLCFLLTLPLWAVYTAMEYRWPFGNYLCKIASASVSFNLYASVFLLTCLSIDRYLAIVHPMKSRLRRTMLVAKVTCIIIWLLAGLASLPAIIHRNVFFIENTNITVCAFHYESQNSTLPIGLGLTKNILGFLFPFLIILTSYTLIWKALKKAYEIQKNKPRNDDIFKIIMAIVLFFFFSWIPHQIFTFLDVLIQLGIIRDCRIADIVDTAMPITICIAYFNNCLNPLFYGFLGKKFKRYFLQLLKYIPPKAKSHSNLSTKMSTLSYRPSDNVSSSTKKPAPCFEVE

[2] = Time required for elimination of 50% of the compound; format: ADME; conditions: human
[3] = target: T1, Type-1 angiotensin II receptor (Homo sapiens)
Description: pKa value against human Angiotensin II receptor type 1

[4] = target: T1, Type-1 angiotensin II receptor (Homo sapiens); assay: Time to maximal plasma concentration of the drug in human
[5] = Percentage modification of drug adsorbed after administration to human; format: ADME
[6] = Oral bioavailability; format: ADME, organism-based; conditions: human, in vivo
[7] = Volume distribution was determined; format: ADME, organism-based; conditions: human, in vivo
[8] = target: T1, Type-1 angiotensin II receptor (Homo sapiens); assay: Time to maximal effect against human Angiotensin II receptor type 1

Compound	Affinity [1]	half-life [2]	pKa [3]	Tmax [4]	Modification of adsorbed drug [5]	bioavailability [6]	Vd [7]	Tmax [8]	VD [7]
CCCCc1nc(Cl)c(C(=O)O)n1Cc1ccc(-c2ccccc2-c2nn[nH]n2)cc1 [CARBOXYLIC ACID METABOLITE]	1.3 nM	384 min	2.8	3 h	–	–	–	–	–
CCCCC1=NC2(CCCC2)C(=O)N1Cc1ccc(-c2ccccc2-c2nnn[nH]2)cc1 [IRBESARTAN]	1.3 nM	1260 min	4.7	2.5 h	20%	70%	0.9 L/kg	–	–
CCCCc1ncc(/C=C(\Cc2cccs2)C(=O)O)n1Cc1ccc(C(=O)O)cc1 [EPROSARTAN]	9.2 nM	420 min	5	13 h	20%	13%	0.16 L/kg	–	–
CCc1nc2c(C)cc(C)nc2n1Cc1ccc(-c2ccccc2-c2nn[nH]n2)cc1	0.5 nM	–	–	–	–	–	–	–	–
Cc1nc(C)c2c(O)cc(=O)n(Cc3ccc(-c4ccccc4-c4nn[nH]n4)cc3)c2n1	0.4 nM	–	–	1 h	–	–	–	–	–
Cc1nc(C)c2c(n1)N(Cc1ccc(-c3ccccc3-c3nnn[nH]3)cc1)C(=O)CC2 [TASOSARTAN]	1.2 nM	900 min	5	0.5 h	2%	60%	–	–	–
CCOc1nc2cccc(C(=O)O)c2n1Cc1ccc(-c2ccccc2-c2nnn[nH]2)cc1	0.1 nM	660 min	3.9	–	20%	40%	–	4 h	–
CCCc1nc2c(C)cc(-c3nc4ccccc4n3C)cc2n1Cc1ccc(-c2ccccc2C(=O)O)cc1	1 nM	1440 min	4.5	1 h	16%	58%	4.54 L/kg	–	–
CCCCc1nc(Cl)c(CO)n1Cc1ccc(-c2ccccc2-c2nnn[nH]2)cc1	6.4 nM	–	4.9	1 h	–	–	–	–	–
CCCCc1nc(Cl)c(CO)n1Cc1ccc(-c2ccccc2-c2nn[nH]n2)cc1 [LOSARTAN]	–	192 min	–	–	75%	–	–	–	0.38 L/kg
CCCCC(=O)N(Cc1ccc(-c2ccccc2-c2nnn[nH]2)cc1)[C@H](C(=O)O)C(C)C	1.7 nM	366 min	–	4 h	9%	25%	0.22 L/kg	–	–
CCCCc1nc(Cl)c(CO)n1Cc1ccc(-c2ccccc2C(=O)O)cc1	230 nM	–	–	–	–	–	–	–	–
Cc1nc(C)c2c(O)cc(=O)n(Cc3ccc(-c4ccccc4-c4nnn[nH]4)cc3)c2n1 [ENOLTASOSARTAN]	–	2400 min	–	–	–	–	–	–	–
